The values that follow come from paper PMC11123961, “Design, Synthesis, and Biological Evaluation of the Quorum-Sensing Inhibitors of Pseudomonas aeruginosa PAO1” (Molecules, 2024).

Usually IC50 stands for the point on the concentration scale where inhibition reaches its midpoint.

Test [1] concerns C. violaceum CV026 QS. On the set-up: method as in earlier work. To be noted: lead compound, value of Zhao; cited from earlier work.
Test [2] deals with C. violaceum CV026 QS. Briefly: Half-maximal inhibitory concentration against C. violaceum CV026 QS (suppression of violacein production). To be noted: Chromobacterium violaceum; C6-HSL-induced violacein production, 12 h; mean ± SD of three independent tests; read-out: IC50, anti-CV026 QS activity. The test is classed as cell-based. An excerpt:
In the exploration of the QS inhibitions, C. violaceum CV026, a mini-T5 mutant of C. violaceum ATCC31532, is frequently employed as a biosensor strain. Because C. violaceum CV026 lacks the CviI gene, which directs the synthesis of AHLs, it is unable to manufacture violacein on its own. The violacein reaction can be induced in C. violaceum CV026 by adding exogenous C6-HSL [27]. As a result, the violacein reaction in C. violaceum CV026 can be used to assess the compounds’ suppression of QS, as used in this investigation.
3.2.2. The Half-Maximal Inhibitory Concentration (IC50) of Compounds against C. violaceum CV026 QS [36]
Subsequently, the log phase of C. violaceum CV026 was placed in a 12-well plate (2 mL/well) after being diluted 10-fold with fresh LB medium. The experimental group received 15 μL of the diluted inducer C6-HSL (0.125 mM), and 8 μL of each dilution gradient compound was added to each well, while the positive control group received 8 μL of C10-HSL, and the blank control group received 8 μL of LB medium. The plates were incubated at 30 °C and 130 rpm for 12 h. After centrifuging 1 mL of the culture for 10 min at 11,255 g, the supernatant was discarded. After dissolving the violacein with 500 μL of DMSO, the mixture was centrifuged once more at 11,255 g for 10 min. In order to measure the absorbance at 585 nm, 200 μL of the upper pigment was added to a 96-well plate. The IC50 was calculated using GraphPad Prism 5 according to the formula (absorbance at 585 nm of the test concentration/the absorbance of the control at 585 nm × 100%).

The subject of test [3] is P. aeruginosa PAO1 biofilms. Briefly: Biofilm quantification, crystal violet assay. The test is classed as cell-based, Pseudomonas aeruginosa. To be noted: for inhibition at 20.3125 µM / inhibition at 40.625 µM / inhibition at 81.25 µM / inhibition at 162.5 µM / inhibition at 325 µM: Pseudomonas aeruginosa, PAO1, 20 h, read-out: Inhibition ratio of biofilm; for inhibition at 20.3125 µM: concentration 20.3125 (unit not given in Table S1; μM in method); for inhibition at 40.625 µM: concentration 40.625 (unit not given in Table S1; μM in method); for inhibition at 81.25 µM: concentration 81.25 (unit not given in Table S1; μM in method); for inhibition at 162.5 µM: concentration 162.5 (unit not given in Table S1; μM in method); for inhibition at 325 µM: concentration 325 (unit not given in Table S1; μM in method). The procedure:
3.2.3. Biofilm Quantification Assays
The crystal violet assay was used to quantitatively analyze the biofilm, as previously described. P. aeruginosa PAO1 log phase was diluted 100 times with fresh LB medium and incubated for 3.5 h at 37 °C and 150 rpm. After that, the P. aeruginosa PAO1 bacterial culture was added to the 96-well plate. P. aeruginosa PAO1 bacterial culture in 90 μL was added to the experimental group, and 10 μL of the test compound at a final concentration of 325 μM, 162.5 μM, 81.25 μM, 40 μM, 20 μM, and 10 μM. Each well received 100 μL of bacterial culture for the control group and 100 μL of fresh LB medium for the blank group. After 20 h of incubation at 37 °C, the bacterial culture was removed from the 96-well plate, and it was dried after three PBS washes. Each well received […] of 0.1% crystal violet (CV) for a 15 min staining period. Each well was washed three times with PBS after the CV was removed. Lastly, each well received 150 μL of 33% glacial acetic acid, and a Biotek multi-function microplate reader was used to measure the absorbance value at 595 nm. The biofilm inhibition rate was calculated as follows = (OD595 blank − OD595 sample)/OD595 blank × 100%.

In test [4] the test system is wildtype Caenorhabditis elegans N2 infected with P. aeruginosa PAO1. Briefly: C. elegans survival assay. Conditions: after 48 h; agent alone: Y-31 162.5 μM, Tob 0.25 μg/mL. Type of test: in vivo. An excerpt:
3.2.7. C. elegans Survival Assay
The negative control was the PGS agar plate coated with E. Coli OP50. Next, 50 wildtype C. elegans N2 strain-synchronized nematodes (L4 stage) were chosen and placed onto the plates. […] When the nematodes in the study were immobile, they were deemed dead. The number of nematodes that survived was tabulated to generate a survival curve.

Test [5] concerns C. violaceum CV026 QS. Briefly: Half-maximal inhibitory concentration against C. violaceum CV026 QS (suppression of violacein production). The test is classed as cell-based. To be noted: qualitative preliminary screening.

The structures appear in SMILES notation. Read-outs that look alike come from different tables or passages of the source. Bounds are passed on as bounds.

As to `O=C(NN1CCOC1=O)c1ccccc1` [AOZ-1], the concentration for half-maximal inhibition (IC50) in the test on C. violaceum CV026 QS [1] is more than 200 µM.
On to `CCCCCCCCCC(=O)N[C@H]1CCOC1=O` [C10-HSL, reference compound], for which, in the test with C. violaceum CV026 QS [2], the IC50 stood at 0.15 ± 0.024 µM. Moreover, in test [3], the inhibition at 20.3125 µM was -4.35%, the inhibition at 40.625 µM was determined as 2.25%, the inhibition at 81.25 µM was determined as 0.25% and the inhibition at 162.5 µM is 6.3%. Besides, the inhibition at 325 µM in test [3] was -18.8%. Besides, the “Effect on the biofilm of P. aeruginosa PAO1” value in test [3] (crystal violet assay) is “no significant inhibitory effect”.
Take `NC[C@H]1O[C@H](O[C@H]2[C@H](O)[C@@H](O[C@H]3O[C@H](CO)[C@@H](O)[C@H](N)[C@H]3O)[C@H](N)C[C@@H]2N)[C@H](N)C[C@@H]1O` [Tob, Tobramycin, reference compound]: the “Improvement of the survival rate of infected nematodes (average)” value in test [4] amounted to 63.33%.
For the compound `O=C(CCCOc1ccc2ccncc2c1)NN1CCOC1=O` [Y-1], in the test on C. violaceum CV026 QS [2], the half-inhibitory concentration (IC50) was found to be 199 ± 13.9 µM. Moreover, in the test on C. violaceum CV026 QS [5], the “C. violaceum CV026 QS inhibitory activity (first assessment)” value is given as “inhibited”.
On to `COc1ccc(OCCCC(=O)NN2CCOC2=O)cc1` [Y-3], for which, in the test on C. violaceum CV026 QS [2], the half-maximal inhibitory concentration (IC50) is 208 ± 7.26 µM. The “C. violaceum CV026 QS inhibitory activity (first assessment)” value in the test on C. violaceum CV026 QS [5] is “inhibited”.
For `O=C(CCCCOc1ccc(Br)cc1)NN1CCCOC1=O` [Y-4], the IC50 in the test with C. violaceum CV026 QS [2] was more than 260 µM.
With `O=C(CCCOc1ccc(-c2ccccc2)cc1)NN1CCOC1=O` [Y-5], in the test with C. violaceum CV026 QS [2], the IC50 amounted to 125 ± 16.1 µM.
Consider `O=C(CCCOc1ccc(Br)cc1)NN1CCCOC1=O` [Y-6], for which the IC50 in the test with C. violaceum CV026 QS [2] was more than 260 µM.
With `O=C(CCCOc1ccc(Br)nc1)NN1CCOC1=O` [Y-9], in the test on C. violaceum CV026 QS [2], the IC50 was 168 ± 7.28 µM. Besides, in the test on C. violaceum CV026 QS [5], the “C. violaceum CV026 QS inhibitory activity (first assessment)” value is “inhibited”.
Regarding `O=C(CCCOc1cnc(Br)cn1)NN1CCOC1=O` [Y-15], the IC50 with C. violaceum CV026 QS [2] was found to be 91.3 ± 3.02 µM. For the same compound, in test [3], the inhibition at 20.3125 µM amounted to 6.73%, the inhibition at 40.625 µM was determined as 27%, the inhibition at 81.25 µM was found to be 36.8% and the inhibition at 162.5 µM stood at 33.9%. Moreover, the inhibition at 325 µM in test [3] was found to be 32.1%. Further, the “C. violaceum CV026 QS inhibitory activity (first assessment)” value with C. violaceum CV026 QS [5] was “inhibited”.
For `CCCCc1ccc(OCCCC(=O)NN2CCOC2=O)cc1` [Y-17], the half-maximal inhibitory concentration (IC50) with C. violaceum CV026 QS [2] was more than 260 µM.
On to `CC(C)(C)Oc1ccc(OCCCC(=O)NN2CCOC2=O)cc1` [Y-18], for which, in the test on C. violaceum CV026 QS [2], the IC50 was more than 260 µM.
With `CCc1ccc(OCCCC(=O)NN2CCOC2=O)cc1` [Y-19], the IC50 in the test on C. violaceum CV026 QS [2] came to 153 ± 8.78 µM.
In the case of `O=C(CCCOc1ccc(C(F)(F)F)cc1)NN1CCOC1=O` [Y-25], the IC50 in the test on C. violaceum CV026 QS [2] amounted to 62.6 ± 3.27 µM. In test [3], the inhibition at 20.3125 µM came to 18.8%, the inhibition at 40.625 µM is 32.2%, the inhibition at 81.25 µM turned out to be 33.4% and the inhibition at 162.5 µM was 39.9%. In test [3], the inhibition at 325 µM worked out at 32.2%. Moreover, the “C. violaceum CV026 QS inhibitory activity (first assessment)” value with C. violaceum CV026 QS [5] is “inhibited”.
In the case of `O=C(CCCOc1ccc(I)cc1)NN1CCOC1=O` [Y-26], in the test on C. violaceum CV026 QS [2], the IC50 worked out at 27.6 ± 1.25 µM. In test [3], the inhibition at 20.3125 µM turned out to be 2.17%, the inhibition at 40.625 µM turned out to be 33.5%, the inhibition at 81.25 µM is 42.5% and the inhibition at 162.5 µM is 44.6%. Besides, the inhibition at 325 µM in test [3] came out at 38.7%. The “C. violaceum CV026 QS inhibitory activity (first assessment)” value in the test with C. violaceum CV026 QS [5] was “inhibited”.
Turning to `O=C(CCCOc1ccccc1)NN1CCOC1=O` [Y-28], the half-inhibitory concentration (IC50) with C. violaceum CV026 QS [2] stood at 232 ± 5.84 µM. Moreover, the “C. violaceum CV026 QS inhibitory activity (first assessment)” value in the test with C. violaceum CV026 QS [5] is given as “inhibited”.
For the compound `O=C(CCCOc1ccc2ccccc2c1)NN1CCOC1=O` [Y-29], in the test with C. violaceum CV026 QS [2], the IC50 was 26.1 ± 2.52 µM. In test [3], the inhibition at 20.3125 µM amounted to 9.51%, the inhibition at 40.625 µM was determined as 32.7%, the inhibition at 81.25 µM worked out at 34.7% and the inhibition at 162.5 µM was 40.9%. Further, in test [3], the inhibition at 325 µM came out at 9.07%. In the test with C. violaceum CV026 QS [5], the “C. violaceum CV026 QS inhibitory activity (first assessment)” value is on record as “inhibited”.
As to `O=C(CCCOc1cccc2ccccc12)NN1CCOC1=O` [Y-37], the IC50 in the test with C. violaceum CV026 QS [2] came to 102 ± 4.36 µM. Besides, in test [3], the inhibition at 20.3125 µM was 15.3%, the inhibition at 40.625 µM came to 35.1%, the inhibition at 81.25 µM was found to be 36.4% and the inhibition at 162.5 µM stood at 28.7%. The inhibition at 325 µM in test [3] was found to be 18.2%.
Regarding `CC(C)c1ccc(OCCCC(=O)NN2CCOC2=O)cc1` [Y-38], the half-maximal inhibitory concentration (IC50) with C. violaceum CV026 QS [2] is more than 260 µM.
Consider `O=C(CCCSc1ccc(Br)cc1)NN1CCOC1=O` [Y-39], for which, in the test with C. violaceum CV026 QS [2], the IC50 was 47.4 ± 1.74 µM. In addition, in test [3], the inhibition at 20.3125 µM came to 12.9%, the inhibition at 40.625 µM was determined as 23.4%, the inhibition at 81.25 µM came out at 28.4% and the inhibition at 162.5 µM was 24.9%. Besides, the inhibition at 325 µM in test [3] came to 21.2%.
Regarding `Cc1ccc(OCCCC(=O)NN2CCOC2=O)c(C)c1` [Y-40], the IC50 with C. violaceum CV026 QS [2] worked out at 180.5 ± 1.77 µM.
